From article PMC3155243 (Molecular cancer therapeutics, 2011)

What was measured:
[1] = Paclitaxel plasma pharmacokinetics
[2] = system: BMK cancer cell lines and allograft tumors with RAS/RAF/MAPK pathway activation; settings: baby mouse kidney (BMK) epithelial cell model; cited from earlier work
[3] = clinical; settings: human, plasma, intravenous
[4] = with bortezomib and paclitaxel; cited from earlier work
[5] = system: advanced solid tumours; settings: bortezomib days 1, 4, 8 and 11 with paclitaxel days 1 and 8; cited from earlier work
[6] = system: proteasome; settings: bortezomib dose 0.7 mg/m^2; cited from earlier work
[7] = human, in vivo
[8] = Dose Level 1: paclitaxel 40 mg/m^2 + bortezomib 0.7 mg/m^2
[9] = Dose Level 2: paclitaxel 45 mg/m^2 + bortezomib 0.75 mg/m^2
[10] = Dose Level 4: paclitaxel 60 mg/m^2 + bortezomib 1.0 mg/m^2

Question: For `CC(=O)O[C@H]1C(=O)[C@@]2(C)[C@H]([C@H](OC(=O)c3ccccc3)[C@]3(O)C[C@H](OC(=O)[C@H](O)[C@@H](NC(=O)c4ccccc4)c4ccccc4)C(C)=C1C3(C)C)[C@]1(OC(C)=O)CO[C@@H]1C[C@@H]2O` [paclitaxel], which “AUC (last)” value [1, 8] is on record?
Answer: 1140 ± 450 ng·h/mL

Question: And the T1/2 [1, 8]?
Answer: 1.75 ± 1.45 h

Question: What about the “AUC (last)” value [1, 9] of the same compound?
Answer: 1430 ± 900 ng·h/mL

Question: And the T1/2 [1, 9]?
Answer: 0.69 ± 0.20 h

Question: What about the “AUC (last)” value ([1]; Dose Level 3: paclitaxel 51 mg/m^2 + bortezomib 0.86 mg/m^2) of the same compound?
Answer: 1700 ± 370 ng·h/mL

Question: What about the “AUC (last)” value [1, 10] of the same compound?
Answer: 2290 ± 740 ng·h/mL

Question: And the T1/2 [1, 10]?
Answer: 1.83 ± 0.86 h

Question: And the clearance [1, 10]?
Answer: 27.2 L/h

Question: And the “effect on BIM” value [2]?
Answer: induced selective BIM accumulation

Question: What about the Tmax [3] of the same compound?
Answer: 1 h

Question: And the clearance [3]?
Answer: 283 to 800 mL/min

Question: Which “recommended phase II dose of carboplatin” value [4] does the source give for `N.N.O=C([O-])C1(C(=O)[O-])CCC1.[Pt+2]` [carboplatin] here?
Answer: 6 AUC

Question: Which “recommended phase II dose of bortezomib” value [5] does the source give for `CC(C)C[C@H](NC(=O)[C@H](Cc1ccccc1)NC(=O)c1cnccn1)B(O)O` [bortezomib] here?
Answer: 1.3 mg/m^2

Question: And the “effect on proteasome function” value [6]?
Answer: effectively inhibit proteasome function

Question: And the MTD of bortezomib [7]?
Answer: 1.0 mg/m^2
